Reference: patent US20170290820A1, “METHODS AND COMPOSITIONS FOR TREATING BETA-THALASSEMIA AND SICKLE CELL DISEASE” (Academia Sinica, priority 2013, published 2017)

Key:
NF-E4 = NF-E4 mRNA level by relative quantitative RT-PCR; type: cell-based, human; details: FIG. 4A; at IC50, 3 days, relative to mock
Procedure: (§1) FIGS. 4A-4D are graphs showing the expression profiles of the γ globin gene and HbF-related regulators after compounds treatment in the primary human erthroid cells. […] Data are presented as the relative expression level in mean±SEM, N=8. […] Upper panel: For detection of the induction level of γ globin, fifty microgram of total cell lysate was analyzed by western blot analysis using antibody against γ globin, or β-actin. Lower panel: The signal intensity was quantified by an image-analyzing software. The intensity of γ globin expression levels of mock control was set as 1. Data are shown as the mean±SEM, N=5. […] Lower panel: The signal was quantified by an image-analyzing software. […] Total RNA was extracted, and the expression level of γ globin gene was analyzed by relative quantitative RT-PCR. […]
(§2) After 3 days of drug-treatment, the total RNA was extracted by RNA Spin mini kit (Ge-Healthcare) and reverse-transcription was performed by using superscript II (Invitrogen) followed the manufactors instruction. Quantitative PCR was performed on LightCycler with using STBR green master mix followed the manufactors instruction (Roche). The absolute quantitative RT-PCR was calculated by the standard curve with supplying a known copy number of plasmids. The relative quantitative RT-PCR was normalized to the expression levels of the β-actin and compared to the mock control. […]

[1] = solubility in DMSO and H2O; type: physicochemical; details: water; H2O; read-out: solubility H2O
BCL11A [2] = test: BCL11A mRNA level by relative quantitative RT-PCR; type: cell-based, human; details: FIG. 4A; at IC50, 3 days, relative to mock
Procedure: as §1, §2

BCL11A [3] = test: BCL11A protein by western blot; type: cell-based, human; details: FIG. 4C, at IC50, 3 days
Procedure: FIGS. 4A-4D are graphs showing the expression profiles of the γ globin gene and HbF-related regulators after compounds treatment in the primary human erthroid cells. […] Data are presented as the relative expression level in mean±SEM, N=8. […] Upper panel: For detection of the induction level of γ globin, fifty microgram of total cell lysate was analyzed by western blot analysis using antibody against γ globin, or β-actin. Lower panel: The signal intensity was quantified by an image-analyzing software. The intensity of γ globin expression levels of mock control was set as 1. Data are shown as the mean±SEM, N=5. […] Upper panel: For detection of the expression level of BCL11A, thirty microgram of total protein was separated by SDS-PAGE electrophoresis, transferred to PVDF membrane, and immunobloted with antibody against BCL11A and β-actin. Lower panel: The signal was quantified by an image-analyzing software. The intensity of the mock control BCL11A levels were set as 1. Data are shown as the mean±SEM, N=5. FIG. 4D is a graph showing that the HU-nonresponding primary human erythroid cells were treated with HU (145.9 μM), NaB (221.6 μM), S51021 (21.8 μM) or SS-2394 (2.3 μM) for 3 days. Total RNA was extracted, and the expression level of γ globin gene was analyzed by relative quantitative RT-PCR. Data are shown as the mean±SEM, N=3. […]

solubility [1]	SMILES	expression level of NF-E4 (NF-E4)	expression level of BCL11A mRNA (BCL11A [2])	BCL11A protein (BCL11A [3])
> 100 mM	NC(=O)NO [HU, hydroxyurea]	0.6 folds	–	–
–	CCCC(=O)[O-].[Na+] [NaB, sodium butyrate]	0.6 folds	0.6 folds	significant reduction
